Consider 15 compounds from patent US20050009730A1, “Treatment of cns disorders using cns target modulators” (priority 2001, published 2005).

pIC50, pKi: −log10 of the molar value. Where two headings read alike, the source gives them in different places.

In one data set the test system is Male Wistar rats. Nature of the data set: Sleep-wakefulness, locomotor activity and body temperature monitoring (SCORE-2000), treatment at CT-18.
The next data set has as its target Histamine, H1 (Homo sapiens, UniProt P35367). Nature of the data set: H1 binding assay by displacement of known standards. The following applies: for Ki: read-out: Receptor Binding Data (Ki nM) H1; for pKi: read-out: H1 Ki. The method, then: (§1) The following binding assays were performed on the Series 11 compounds described above by displacement of known standards from the H1, M1, M2, and M3 receptors, wherein H1 is a histamine receptor, and M1, M2, and M3 are muscarinic receptors.
The binding studies against the histamine receptor, H1, indicate binding affinity, and therefore the results of the binding assays are an indication of the activity of the compound. […]
The following binding assays were performed on additional compounds described above by displacement of known standards from the H1, M1, M2, and M3 receptors, wherein H1 is a histamine receptor, and M1, M2, and M3 are muscarinic receptors.
The binding assays for H1 was the same as described in Example 10 and the M1, M2, and M3 binding assays are the same as those described in Example 10 for human recombinant expressed cells.

The subject of a further data set is muscarinic receptors. The experiment in a line: Muscarinic receptor binding, M1, M2 and M3 taken together in the conclusions. The procedure:
as §1
In addition, the binding studies against the muscarinic receptors indicate the extent to which the compounds bind the muscarinic receptors, responsible for anti-cholinergic activity of the compound. Binding to muscarinic receptors results in several undesired side effects of many known antihistamines, e.g., dry-mouth. A decrease in the binding of the compounds to the M1-M3 receptors, relative the binding of the compound to the H1 receptor, is an indication of the greater specificity of the compound for the histamine receptor over the muscarinic receptor.

Where [1] appears, read: 10 mg/kg or 30 mg/kg, intraperitoneal.
Where [2] appears, read: 30 mg/kg and 10 mg/kg, intraperitoneal, CT-18.

As usually defined, the Ki is a dissociation constant, usually derived from enzyme kinetics or from competition with a known ligand. The pIC50 is the IC50 on a negative log10 scale, so that one unit is a factor of ten. As a reminder, the pKi is −log10 of the Ki, conventionally taken in molar units.

Histamine, H1, sequence (P35367 whole entry): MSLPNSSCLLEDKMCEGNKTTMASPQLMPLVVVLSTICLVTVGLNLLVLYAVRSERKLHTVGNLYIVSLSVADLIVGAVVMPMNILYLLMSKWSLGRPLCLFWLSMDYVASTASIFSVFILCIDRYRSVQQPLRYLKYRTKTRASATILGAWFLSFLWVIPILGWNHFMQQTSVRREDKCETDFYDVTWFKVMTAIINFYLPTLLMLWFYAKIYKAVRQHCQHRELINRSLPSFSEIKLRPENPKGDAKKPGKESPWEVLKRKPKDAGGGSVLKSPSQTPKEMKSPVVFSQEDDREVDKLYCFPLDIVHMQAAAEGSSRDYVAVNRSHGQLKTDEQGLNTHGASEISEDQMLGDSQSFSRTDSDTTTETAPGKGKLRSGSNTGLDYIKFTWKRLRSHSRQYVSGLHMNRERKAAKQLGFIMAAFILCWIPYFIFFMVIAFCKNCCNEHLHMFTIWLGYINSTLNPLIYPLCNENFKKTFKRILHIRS

`Cc1ccc(-c2nc3ccc(C)cn3c2CC(=O)N(C)C)cc1` [Ambien, Zolpidem, reference compound]: in the data set with Male Wistar rats (30 mg/kg IP, at CT-18), the “Average Bout-Length” value came to 5.8 min, the Duration was in the range of 3 to 4 h, the “Maximum Bout Length” value was 13.1 min and the “Motor Inhibition” value was “YES”. For the same compound, in the data set with Male Wistar rats (30 mg/kg IP, at CT-18), the “NREM Accum.” value came out at 58.7 min, the “NREM Peak” value is recorded as 58.2 %/hr, the Onset was 5 min and the “REM Inhibition” value is “YES”. In addition, the “Rebound Insomnia” value in the data set with Male Wistar rats (30 mg/kg IP, at CT-18) was “YES”.

For `Cl.O=C(O)CCN1CCC(OC(c2ccccc2)c2ccccc2)CC1` [Series 6a, 3-[4-(diphenylmethoxy)piperidin-1-yl]propanoic acid hydrochloride], in the data set on Male Wistar rats (30 mg/kg PO, at CT-18), the “Average Bout-Length” value was determined as 7.0 min, the Duration was found to be 5 h, the “Maximum Bout Length” value was 12.8 min and the “NREM Accum.” value was found to be 26.5 min. In addition, in the data set with Male Wistar rats (30 mg/kg PO, at CT-18), the “NREM Peak” value was determined as 56.4 %/hr and the Onset stood at 65 min. Also, the Ki on Histamine, H1 was determined as 56.1 nM.

For `O=C(O)CN1CCC(=C2c3ccccc3COc3ccccc32)CC1` [Series 7a], in the data set on Male Wistar rats (30 mg/kg PO, at CT-18), the “Average Bout-Length” value was 7.3 min, the Duration lay within 5 to 6 h, the “Maximum Bout Length” value is 16.9 min and the “NREM Accum.” value stood at 29.5 min. In addition, in the data set with Male Wistar rats (30 mg/kg PO, at CT-18), the “NREM Peak” value is given as 56.9 %/hr and the Onset was 130 min. Besides, the Ki at Histamine, H1 amounted to 55.1 nM.

Turning to `Cl.O=C(O)CCN1CCC(=C(c2ccccc2)c2ccccc2)CC1` [Series 11a], in the data set with Male Wistar rats (30 mg/kg PO, at CT-18), the “Average Bout-Length” value is 11.2 min, the Duration stood at 6 h, the “Maximum Bout Length” value is 18.7 min and the “NREM Accum.” value was found to be 41.2 min. For the same compound, in the data set on Male Wistar rats (30 mg/kg PO, at CT-18), the “NREM Peak” value amounted to 67.3 %/hr, the Onset came to 85 min and the “Rebound Insomnia” value is reported as “Minor”. Further, at Histamine, H1, the pIC50 was 6.51 and the negative logarithm of the Ki (pKi) is 6.92.

As for `CC(C)OC(=O)CCN1CCC(=C(c2ccccc2)c2ccccc2)CC1` [Series 11d, Isopropyl 3-[4-(diphenylmethylidene)piperidin-1-yl]propanoate], in the data set with Male Wistar rats (30 mg/kg PO, at CT-18), the “Average Bout-Length” value was determined as 11.0 min, the Duration amounted to 6 h, the “Maximum Bout Length” value came to 20.1 min and the “NREM Accum.” value was determined as 55.5 min. In the data set with Male Wistar rats (30 mg/kg PO, at CT-18), the “NREM Peak” value came to 58.5 %/hr and the Onset came to 135 min. Besides, at Histamine, H1, the pIC50 was 6.42 and the pKi is 6.83.

On to `CC(C)COC(=O)CCN1CCC(=C(c2ccccc2)c2ccccc2)CC1` [Series 11e, Isobutyl 3-[4-(diphenylmethylidene)piperidin-1-yl]propanoate], for which, in the data set with Male Wistar rats (30 mg/kg PO, at CT-18), the “Average Bout-Length” value came out at 8.3 min, the Duration is 6 h, the “Maximum Bout Length” value was determined as 19.1 min and the “NREM Accum.” value turned out to be 49.6 min. Also, in the data set with Male Wistar rats (30 mg/kg PO, at CT-18), the “NREM Peak” value came out at 59.6 %/hr and the Onset came out at 80 min. At Histamine, H1, the pIC50 was 6.14 and the pKi was 6.55.

Turning to `O=C(CCN1CCC(=C(c2ccccc2)c2ccccc2)CC1)OC1CCCC1.O=C(O)C(=O)O` [Series 11f, Cyclopentyl 3-[4-(diphenylmethylidene)piperidin-1-yl]propanoate, oxalic acid salt], in the data set on Male Wistar rats (setting [1]), the REM sleep inhibition entry is listed as “did not, however, produce” and the Rebound Insomnia result is “did not, however, produce”. Also, in the data set on Male Wistar rats (setting [2]), the “time post-treatment for which total sleep time was increased” value worked out at 3 h and the total sleep time result is listed as “significantly increased”. Moreover, the “cumulative effect on total sleep time (TST) during the initial 5 hours post-treatment, relative to baseline” value in the data set on Male Wistar rats (30 mg/kg versus Zolpidem 10 mg/kg) is “induced more TST than Zolpidem”. Further, the “sleep continuity, as assessed by sleep bout length” value in the data set with Male Wistar rats (10 and 30 mg/kg, intraperitoneal, relative to vehicle control) is recorded as “increased sleep continuity”. Moreover, the soporific effects result with Male Wistar rats (administered at CT-18, intraperitoneal bolus) is “robust soporific effects”. In the data set on Male Wistar rats (intraperitoneal, CT-18), the locomotor activity result is “reduction” and the “sleep inducing effects compared to therapeutic doses of Ambien (Zolpidem)” value is “equal or better”. The “increase of sleep time and sleep continuity (sleep bout lengths): dependence on dose” value in the data set on Male Wistar rats (laboratory rats, 10 and 30 mg/kg) is reported as “dose-dependent”. For the same compound, on Histamine, H1, the negative logarithm of the IC50 (pIC50) is 5.97 and the pKi is 6.38.

Turning to `O=C(CCN1CCC(=C(c2ccccc2)c2ccccc2)CC1)OC1CCOC1` (centres unmarked) [Series 11h], the “difference in binding affinity towards the muscarinic receptors between the enantiomeric compounds” value in the data set with muscarinic receptors is recorded as “do show a substantial difference”. On Histamine, H1, the pIC50 is 6.70, the “difference in binding affinity towards the H1 receptor between the enantiomeric compounds” value is recorded as “do not result in a substantial difference” and the pKi is 7.05.

For `O=C(CCN1CCC(=C(c2ccccc2)c2ccccc2)CC1)OC1CCOCC1` [Series 11i], at Histamine, H1, the pIC50 is 6.70 and the negative logarithm of the Ki (pKi) was 7.06.

As to `Cc1ccc(/C(=C\CN2CCCC2)c2cccc(C(=O)O)n2)cc1` [Series 16a], in the data set on Male Wistar rats (30 mg/kg PO, at CT-18), the “Average Bout-Length” value amounted to 5.4 min, the Duration stood at 5 h, the “Maximum Bout Length” value amounted to 11.8 min and the “NREM Accum.” value came out at 20.7 min. In the data set on Male Wistar rats (30 mg/kg PO, at CT-18), the “NREM Peak” value is 57.9 %/hr and the Onset was 180 min. In addition, the inhibition constant (Ki) at Histamine, H1 was determined as 43.9 nM.

Turning to `Cl.O=C(O)CCCN1CCC(OC(c2ccccc2)c2ccccc2)CC1` [Series 53a], in the data set with Male Wistar rats (30 mg/kg PO, at CT-18), the “Average Bout-Length” value worked out at 4.3 min, the Duration stood at 4 h, the “Maximum Bout Length” value turned out to be 9.1 min and the “NREM Accum.” value was 17.4 min. In the data set on Male Wistar rats (30 mg/kg PO, at CT-18), the “NREM Peak” value was 49.2 %/hr and the Onset was determined as 30 min. For the same compound, at Histamine, H1, the Ki is 16.1 nM.

Regarding `O=C(O)CCCN1CCC(=C2c3ccccc3COc3ccccc32)CC1` [Series 73a], in the data set with Male Wistar rats (30 mg/kg PO, at CT-18), the “Average Bout-Length” value came out at 14.5 min, the “Maximum Bout Length” value was determined as 27.6 min, the “NREM Accum.” value turned out to be 47.3 min and the “NREM Peak” value came to 62.2 %/hr. The compound also showed an Onset in the data set with Male Wistar rats (30 mg/kg PO, at CT-18) of 45 min. Besides, the Ki on Histamine, H1 is 42.8 nM.

Consider `CC(C)(CN1CCC(=C2c3ccccc3COc3ccccc32)CC1)C(=O)O` [Series 74a], for which, in the data set on Male Wistar rats (30 mg/kg PO, at CT-18), the “Average Bout-Length” value was 9.9 min, the Duration is 5 to 6 h, the “Maximum Bout Length” value worked out at 22.3 min and the “NREM Accum.” value amounted to 43.4 min. In addition, in the data set with Male Wistar rats (30 mg/kg PO, at CT-18), the “NREM Peak” value is recorded as 64.4 %/hr and the Onset is 70 to 80 min. The inhibition constant (Ki) at Histamine, H1 was 109 nM.

As to `CC(C)(CCN1CCC(=C2c3ccccc3COc3ccccc32)CC1)C(=O)O` [Series 75a], in the data set on Male Wistar rats (30 mg/kg PO, at CT-18), the “Average Bout-Length” value was 6.8 min, the Duration is 4 h, the “Maximum Bout Length” value was 13.6 min and the “NREM Accum.” value stood at 33.9 min. In addition, in the data set with Male Wistar rats (30 mg/kg PO, at CT-18), the “NREM Peak” value was 58.8 %/hr and the Onset lay within 70 to 85 min. In addition, in the data set with Male Wistar rats (45 mg/kg PO, at CT-18), the “Average Bout-Length” value was determined as 10.8 min, the Duration turned out to be 5 h, the “Maximum Bout Length” value was 19.4 min and the “NREM Accum.” value turned out to be 33.9 min. In the data set on Male Wistar rats (45 mg/kg PO, at CT-18), the “NREM Peak” value came out at 58.2 %/hr and the Onset fell in the range of 70 to 85 min. For the same compound, on Histamine, H1, the Ki came to 47.9 nM.

Consider `CC(C)OC(=O)CN1CCC(=C2c3ccccc3COc3ccccc32)CC1` [dox7d-oxalate], for which, in the data set on Male Wistar rats (30 mg/kg PO, at CT-18), the “Average Bout-Length” value was 12.9 min, the Duration was found to be 5 h, the “Maximum Bout Length” value turned out to be 25.0 min and the “NREM Accum.” value came out at 54.1 min. Moreover, in the data set with Male Wistar rats (30 mg/kg PO, at CT-18), the “NREM Peak” value was found to be 76.9 %/hr and the Onset was determined as 85 min. The inhibition constant Ki on Histamine, H1 amounted to 198 nM.
